The values that follow are results of earlier work, collected in patent US20130224131A1, “4-AMIDINO BENZYLAMINES FOR COSMETIC AND/OR DERMATOLOGICAL USE” (DSM IP ASSETS B.V., priority 2007, published 2013).

Each structure is given as a SMILES string.

The data set concerns the target urokinase (Homo sapiens, UniProt P00749). To be noted: qualitative statement, described in WO 01/96286.
`N=C(N)c1ccc(CNC(=O)CNC(=O)[C@@H](CO)NS(=O)(=O)Cc2ccccc2)cc1` [benzylsulfonyl-D-Ser-Gly-4-amidino-benzylamide]: the urokinase-inhibiting activity entry is “potent and highly specific urokinase-inhibiting activity”.
As to `N=C(N)c1ccc(CNC(=O)[C@H](CCCCN)NC(=O)[C@@H](CO)NS(=O)(=O)Cc2ccccc2)cc1` [benzylsulfonyl-D-Ser-Lys-(4-amidino-benzylamide)], the urokinase-inhibiting activity result was “potent and highly specific urokinase-inhibiting activity”.
Take `N=C(N)c1ccc(CNC(=O)C(CCc2ccccc2)NC(=O)[C@@H](CO)NS(=O)(=O)Cc2ccccc2)cc1` (stereo partly drawn) [benzylsulfonyl-D-Ser-homoPhe-(4-amidino-benzylamide)]: the urokinase-inhibiting activity result was “potent and highly specific urokinase-inhibiting activity”.
